Source: patent publication US20220062240A1, “METHODS OF TREATING CANCER USING A CLK INHIBITOR” (BioSplice Therapeutics, Inc., priority 2018, published 2022)
Like-named read-outs stand apart in the source and are kept apart here.

Assays:
[1] = molecular target: T1, CLK2 (Homo sapiens, UniProt P49760); experiment: CLK2 kinase activity assay (Z-lyte, Ser/Thr 6 peptide); format: biochemical; conditions: recombinant CLK2 kinase, ATP 60 μM; read-out: EC50
T1 construct: purchased Thermo Fisher (Life Technologies), Z'-LYTE Kinase Assay Kits
Description: All reactions were performed in duplicate.

[2] = molecular target: CLK3 (Homo sapiens, UniProt P49761); experiment: CLK3 kinase activity assay (Z-lyte, Ser/Thr 18 peptide)
[3] = test system: pancreatic cancer (8 cell lines); experiment: CellTiter-Glo Viability Assay, pancreatic cancer; format: cell-based; conditions: Homo sapiens, inhibition of cancer cell proliferation
[4] = test system: ovarian cancer (4 cell lines); experiment: CellTiter-Glo Viability Assay, ovarian cancer; format: cell-based; conditions: Homo sapiens, inhibition of cancer cell proliferation
[5] = test system: liver cancer (3 cell lines); experiment: CellTiter-Glo Viability Assay, liver cancer; format: cell-based; conditions: Homo sapiens, inhibition of cancer cell proliferation
[6] = test system: BT-549; experiment: CellTiter-Glo Viability Assay, breast cancer; format: cell-based; conditions: Homo sapiens, 96 h; BT-549, breast cancer, four days; read-out: EC50
[7] = test system: HCC1599; experiment: CellTiter-Glo Viability Assay, breast cancer; format: cell-based; conditions: Homo sapiens, 96 h; HCC1599, breast cancer, four days; read-out: EC50
[8] = test system: ZR-75-1; experiment: CellTiter-Glo Viability Assay, breast cancer; format: cell-based; conditions: Homo sapiens, 96 h; ZR-75-1, breast cancer, four days; read-out: EC50
[9] = test system: MDA-MB-231-Luc; experiment: CellTiter-Glo Viability Assay, breast cancer; format: cell-based; conditions: Homo sapiens, 96 h; MDA-MB-231-Luc, breast cancer, four days; read-out: EC50
[10] = test system: MCF7; experiment: CellTiter-Glo Viability Assay, breast cancer; format: cell-based; conditions: Homo sapiens, 96 h; MCF7, breast cancer, four days; read-out: EC50
[11] = test system: DU4475; experiment: CellTiter-Glo Viability Assay, breast cancer; format: cell-based; conditions: Homo sapiens, DU-4475, 96 h; DU4475, breast cancer, four days; read-out: EC50
[12] = test system: CAMA1; experiment: CellTiter-Glo Viability Assay, breast cancer; format: cell-based; conditions: Homo sapiens, CAMA-1, 96 h; CAMA1, breast cancer, four days; read-out: EC50
[13] = test system: T47D; experiment: CellTiter-Glo Viability Assay, breast cancer; format: cell-based; conditions: Homo sapiens, 96 h, breast cancer, four days, read-out: EC50
[14] = test system: colorectal cancer (6 cell lines); experiment: CellTiter-Glo Viability Assay, colorectal cancer; format: cell-based; conditions: Homo sapiens, inhibition of cancer cell proliferation
[15] = test system: prostate cancer (5 cell lines); experiment: CellTiter-Glo Viability Assay, prostate cancer; format: cell-based; conditions: Homo sapiens
[16] = test system: all 50 cell lines; experiment: CellTiter-Glo Viability Assay, average across all cell lines; format: cell-based; conditions: Homo sapiens; across all 50 cell lines; read-out: average EC50 for inhibition of cancer cell proliferation
Procedure, shortened: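 Human cancer cell lines from breast, colorectal, haematopoietic/lymphoid, liver, lung, ovarian, pancreatic and prostate tumours were seeded at 300-3,000 cells/well and exposed to compound in duplicate for four days at 37° C, 5% CO2. Viable cells were measured by ATP luminescence; EC50 values came from dose-response curves.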

[17] = test system: lung cancer (4 cell lines); experiment: CellTiter-Glo Viability Assay, lung cancer; format: cell-based; conditions: Homo sapiens, inhibition of cancer cell proliferation

Chain of CLK3 (P49761 whole entry): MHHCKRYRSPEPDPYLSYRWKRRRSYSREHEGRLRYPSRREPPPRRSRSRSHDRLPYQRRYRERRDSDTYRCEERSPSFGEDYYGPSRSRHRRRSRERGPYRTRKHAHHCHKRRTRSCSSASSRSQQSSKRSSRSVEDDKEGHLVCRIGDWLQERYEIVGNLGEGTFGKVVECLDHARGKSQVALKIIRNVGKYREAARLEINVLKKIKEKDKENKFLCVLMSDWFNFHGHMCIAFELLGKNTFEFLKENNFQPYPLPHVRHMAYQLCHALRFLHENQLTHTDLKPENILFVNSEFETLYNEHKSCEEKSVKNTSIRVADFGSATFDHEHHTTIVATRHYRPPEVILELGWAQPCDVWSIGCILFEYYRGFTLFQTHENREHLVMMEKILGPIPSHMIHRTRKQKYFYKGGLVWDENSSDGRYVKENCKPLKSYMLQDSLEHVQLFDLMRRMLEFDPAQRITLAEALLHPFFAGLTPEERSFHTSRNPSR
T1 sequence (P49760 whole entry): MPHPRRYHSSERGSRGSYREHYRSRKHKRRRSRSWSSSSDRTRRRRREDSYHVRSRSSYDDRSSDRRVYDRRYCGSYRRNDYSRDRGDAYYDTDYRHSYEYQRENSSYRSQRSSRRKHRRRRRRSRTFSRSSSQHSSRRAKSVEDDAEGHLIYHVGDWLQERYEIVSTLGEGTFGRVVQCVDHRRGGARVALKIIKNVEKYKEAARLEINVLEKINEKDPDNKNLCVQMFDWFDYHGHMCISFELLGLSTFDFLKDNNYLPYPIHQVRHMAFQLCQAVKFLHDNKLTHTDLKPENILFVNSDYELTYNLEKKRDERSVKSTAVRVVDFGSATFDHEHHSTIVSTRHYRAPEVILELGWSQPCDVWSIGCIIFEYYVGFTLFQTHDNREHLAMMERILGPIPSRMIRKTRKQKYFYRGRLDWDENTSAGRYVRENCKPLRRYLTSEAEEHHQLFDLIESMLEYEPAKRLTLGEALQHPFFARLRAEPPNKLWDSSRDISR

In the case of `CN(C)CCOc1cc(C(=O)Nc2cc3cc(-c4cnn(C)c4)ccc3cn2)ccn1` [Compound 73], the EC50 [1] is reported as 1.9 nM, the EC50 [2] is reported as 31.2 nM and the EC50 ([3]; BXPC-3, BxPC3 cell line, read-out: Pancreatic cancer, EC50 BxPC3) is reported as 451 nM. It also gave an EC50 ([3]; CAPAN-1, Capan1 cell line, read-out: Pancreatic cancer, EC50 Capan1) of 249 nM, an EC50 ([3]; Capan-2, Capan2 cell line, read-out: Pancreatic cancer, EC50 Capan2) of 555 nM and an EC50 ([3]; MIA PaCa-2 cell line, read-out: Pancreatic cancer, EC50 MIA PaCa-2) of 141 nM. For the same molecule, the EC50 ([3]; PANC 05.04 cell line, read-out: Pancreatic cancer, EC50 PANC 05.04) was 232 nM, the EC50 ([3]; PANC-1 cell line, read-out: Pancreatic cancer, EC50 PANC-1) was 401 nM and the EC50 ([3]; UPAFII cell line, read-out: Pancreatic cancer, EC50 UPAFII) was 203 nM. It also gave an EC50 ([4]; PA-1, PA1 cell line, read-out: Ovarian cancer, EC50 (μM) PA1) of 0.325 µM, an EC50 ([4]; TOV112D, TOV-112D cell line, read-out: Ovarian cancer, EC50 (μM) TOV-112D) of 0.165 µM and an EC50 ([4]; OV-90 cell line, read-out: Ovarian cancer, EC50 (μM) OV-90) of 0.486 µM. It also gave an EC50 ([4]; OVCAR-3 cell line, read-out: Ovarian cancer, EC50 (μM) OVCAR-3) of 0.123 µM, an EC50 ([5]; SNU-398, SNU398 cell line, read-out: Liver cancer, EC50 SNU398) of 88 nM and an EC50 ([5]; HEPG2 cell line, read-out: Liver cancer, EC50 HEPG2) of 383 nM. For the same molecule, the EC50 ([5]; PLC/PRF/5 cell line, read-out: Liver cancer, EC50 PLC/PRF/5) was 674 nM, the EC50 [6] was 272 nM and the EC50 [7] was 73 nM. The EC50 [8] was 467 nM, the EC50 [9] was 374 nM and the EC50 [10] was 914 nM. For the same molecule, the EC50 [11] was 163 nM, the EC50 [12] was 379 nM and the EC50 [13] was 534 nM. It also gave an EC50 ([14]; HCT-116, HCT116 cell line, read-out: Colorectal cancer, EC50 (μM) HCT116) of 0.155 µM, an EC50 ([14]; HT-29, HT29 cell line, read-out: Colorectal cancer, EC50 (μM) HT29) of 0.385 µM and an EC50 ([14]; SW-620, SW620 cell line, read-out: Colorectal cancer, EC50 (μM) SW620) of 0.13 µM. The EC50 ([14]; DLD-1 cell line, read-out: Colorectal cancer, EC50 (μM) DLD-1) was 0.241 µM, the EC50 ([14]; SW48 cell line, read-out: Colorectal cancer, EC50 (μM) SW48) was 0.105 µM and the EC50 ([14]; SW480 cell line, read-out: Colorectal cancer, EC50 (μM) SW480) was 0.16 µM. The EC50 ([15]; DU-145, read-out: Prostate cancer EC50 Du-145) was 308 nM, the EC50 ([15]; PC-3, PC3 cell line, inhibition of cancer cell proliferation, read-out: Prostate cancer EC50 PC3) was 302 nM and the EC50 ([15]; 22Rv1 cell line, inhibition of cancer cell proliferation, read-out: Prostate cancer EC50 22Rv1) was 194 nM. The EC50 ([15]; LNCap clone FGC cell line, inhibition of cancer cell proliferation, read-out: Prostate cancer EC50 LNCap clone FGC) was 526 nM, the EC50 ([15]; VCaP (Sigma) cell line, inhibition of cancer cell proliferation, read-out: Prostate cancer EC50 VCaP (Sigma)) was 430 nM and the EC50 [16] was 306 nM. It also gave an EC50 ([17]; A-427, A427 cell line, read-out: Lung cancer, EC50 (μM) A427) of 0.29 µM, an EC50 ([17]; HCC78, HCC-78 cell line, read-out: Lung cancer, EC50 (μM) HCC-78) of 0.504 µM and an EC50 ([17]; NCI-H460 cell line, read-out: Lung cancer, EC50 (μM) NCI-H460) of 0.396 µM. The EC50 ([17]; NCI-H522 cell line, read-out: Lung cancer, EC50 (μM) NCI-H522) was 0.144 µM.
